Patent US7635693B2, “Methods for preventing and treating cancer using N-thiolated β-lactam compounds and analogs thereof” (University of South Florida, priority 2002, dated 2009)
Several values for one entry are separate records, joined by “and”; a condition that tells them apart may be missing. Equal values may be shown once. Read-outs that look alike come from different tables or passages of the source.

What was measured:
[1] = tested on: Jurkat T cells; test: Flow cytometry cell cycle distribution and sub-G1 population, Jurkat T cells; assay type: cell-based, human; conditions: 50 μM; for increase in S phase population / sub-G1 apoptotic population: 5 hours
Description: Cell Death Differ 5:1062-75. At each time point, cells are harvested, counted, and washed twice with PBS. Cells (5×10^6) are suspended in 0.5 ml PBS, fixed in 5 ml of 70% ethanol for at least 2 h at −20° C., centrifuged, resuspended again in 1 ml of propidium iodide staining solution (50 μg propidium iodide, 100 units RNase A and 1 mg glucose per ml PBS), and incubated at room temperature for 30 minutes. The cells are then analyzed with FACScan (Becton Dickinson Immunocytometry, CA), ModFit LT and WinMDI V.2.8 cell cycle analysis software (Verity Software; Topsham, Me.). The cell cycle distribution is shown as the percentage of cells containing G1, S, G2, and M DNA judged by propidium iodide staining. The apoptotic population is determined as the percentage of cells with sub-G1 (<G1) DNA content.

[2] = tested on: PARP; test: PARP cleavage, Western blot, Jurkat T cells; assay type: cell-based, human; conditions: 50 μM, 8 hours
Description: A library of β-lactam analogs was screened for their ability to induce apoptosis. […] This is followed by preparation of cell lysates and measurement of apoptosis-specific caspase-3 activation (by cell-free caspase-3 activity assay) and PARP cleavage (by Western blotting).

[3] = tested on: Jurkat T cells; test: TUNEL assay (DNA strand breaks), Jurkat T cells; assay type: cell-based, human; conditions: for TUNEL-positive cell population (DNA damage): 4 hour
Description: Terminal deoxynucleotidyl transferase-mediated UTP nick end labeling (TUNEL) was performed to determine the extent of DNA strand breaks. TUNEL assay was performed with an APO-Direct kit per the manufacturer's instructions. In brief, cells are fixed in 1% paraformaldehyde and ethanol at […] overnight and then permeabilized with Proteinase K. After permeabilization, Fluorescein conjugated dNTP's and TdT enzyme (Terminal Deoxynucleotidyl Transferase) are added to the cells. The TdT enzyme is then able to label free ends of DNA with Fluorescein conjugated dNTPs that could then be detected by flow cytometry.
The assay was performed following manufacturer's instruction using the APO-Direct kit. In brief, the harvested cells were fixed in 1% paraformaldehyde for 15 min on ice, washed with PBS, and then fixed again in 70% ethanol at −20° C. overnight. The cells were then incubated in DNA labeling solution (containing terminal deoxynucleotidyl transferase (TdT) enzyme, fluorescein-conjugated dUTP and reaction buffer) for 90 min at 37° C. After removing the DNA labeling solution by rinsing cells with Rinsing Buffer, the cells were incubated with the Propidium Iodide/RNase A solution, incubated for 30 min at room temperature in the dark, and then analyzed by flow cytometry within 3 h of staining.

[4] = tested on: caspase-3; test: Cell-free caspase-3 activity assay on extracts of treated Jurkat T cells; assay type: cell-based, human; conditions: 50 μM, 8 hours
Description: (§1) Briefly, a prepared protein extract (20 μg) is incubated in a buffer containing 50 mM Tris/pH 8.0 along with each respective caspase substrate at 20 μM in a 96 well plate. The reaction mixture is incubated at 37° C. for 2 h.
A library of β-lactam analogs was screened for their ability to induce apoptosis. The screening procedure is accomplished by treating human Jurkat T cells with each compound at 50 μM for 8 hours. This is followed by preparation of cell lysates and measurement of apoptosis-specific caspase-3 activation (by cell-free caspase-3 activity assay) and PARP cleavage (by Western blotting).

[5] = tested on: Jurkat T cells; test: Morphological changes of treated Jurkat T cells; assay type: cell-based, human; conditions: 50 μM, 8 hours
[6] = tested on: p38 MAP kinase; test: p38 phosphorylation, Western blot, Jurkat T cells; assay type: cell-based, human; conditions: for normalized increase in phosphorylation of p38 over control: FIG. 8D
Description: It has been shown that multiple stimuli including DNA damaging agents induce apoptosis via activation of p38 MAP kinase (Kummer J L, et al., 1997, Apoptosis induced by withdrawal of trophic factors is mediated by p38 mitogen-activated protein kinase. J. Biol Chem 272:20490-4; Sanchez-Prieto R, et al., 2000, A role for the p38 mitogen-acitvated protein kinase pathway in the transcriptional activation of p53 on genotoxic stress by chemotherapeutic agents. Cancer Res 60:2464-72). […] The levels of Tyr-182 phosphorylated p38 protein were increased by 3-fold at 2 h and reached its maximum (˜9-fold) by 6 h (FIG. 8A). In has been shown that dual phosphorylation of p38 on Tyr-182 and Thr-180 activates this kinase (Raingeaud J, et al., 1995, Pro-inflammatory cytokines and environmental stress cause p38 mitogen-activated protein kinase activation by dual phosphorylation on tyrosine and threonine. J Biol Chem 270:7420-6). […] Therefore, lactam 1-induced DNA damage triggered activation of p38 before S population accumulation and apoptosis induction.

[7] = tested on: Jurkat T cells; assay type: cell-based, human; conditions: for non-viable cell population / cell death (trypan blue): 50 μM
Description: The trypan blue exclusion assay was performed by injecting 10 μl of cell suspension containing 0.2% trypan blue dye into a hemoicytometer and counting. Numbers of cells that absorbed the dye and those that excluded the dye are counted, from which the percentage of non-viable cell number to total cell number is calculated.

[8] = tested on: PARP; conditions: YT cells, 2, 10, 25, and 50 μM, 12 h
Description: Human Jurkat T cells and human prostate cancer LNCaP cells were cultured in RPMI 1640 medium, supplemented with 10% fetal bovine serum, 100 units/ml penicillin, and 100 μg/ml streptomycin. Human YT cells were cultured in RPMI 1640 medium supplemented with 1 mM MEM sodium pyruvate solution, 0.1 mM MEM non-essential amino acids solution, 10% fetal bovine serum, 100 units/ml penicillin, and 100 μg/ml streptomycin. All cell lines were maintained at 37° C. in a humidified incubator with an atmosphere of 5% CO2. […] Briefly, cells were harvested, washed with PBS and homogenized in a lysis buffer (50 mM Tris-HCl, pH 8.0, 5 mM EDTA, 150 mM NaCl, 0.5% NP-40, 0.5 mM phenylmethylsulfonyl fluoride, and 0.5 mM dithiothreitol) for 30 min at 4° C. Afterwards, the lysates were centrifuged at 12000×g for 15 min at 4° C. and the supernatants collected as whole-cell extracts. Equal amounts of protein extract (60 μg) were resolved by SDS-polyacrylamide gel electrophoresis and transferred to a nitrocellulose membrane (Schleicher & Schuell, Keene, N. H.) using a Semi-Dry Transfer System (Bio-Rad, Hercules, Calif.). The enhanced chemiluminescence Western blot analysis was then performed using specific antibodies to the proteins of interest.

[9] = tested on: NK cells (YT line); conditions: YT cells, 2, 10, 25, and 50 μM, 24 h
Description: The trypan blue dye exclusion assay was performed by mixing 20 μl of cell suspension with 20 μl of 0.4% trypan blue dye before injecting into a hemocytometer and counting. The number of cells that absorbed the dye and those that exclude the dye were counted, from which the percentage of nonviable cell number to total cell number was calculated.

[10] = tested on: caspase-3; conditions: LNCaP cells, 48 h
Description: To measure cell-free caspase-3 activity, whole cell extracts (20-30 μg) from untreated or treated LNCaP cells were incubated with 20 μM of the fluorogenic substrate caspase-3/caspase-7 (Ac-DEVD-AMC) for 30 min at 37° C. in 100 μl of assay buffer (50 mM Tris, pH 8.0).

[11] = tested on: LNCaP cells; conditions: LNCaP cells in soft agar, 50 μM, 21 day-incubation
Description: The soft agar assay was performed as described previously (Menter D G, Sabichi A L, Lippman S M., 2000, Selenium effects on prostate cell growth. Cancer Epidemiol Biomarkers Prev 9:1171-82) with a few modifications. In brief, in a six-well plate, a bottom feeder layer (0.6% agar) was prepared with DMEM media containing 10% fetal bovine serum, 100 units/ml penicillin, and 100 μg/ml streptomycin. […] Plates were incubated at 37° C. in 5% CO2 in a humidified incubator for three weeks. MTT (1 mg/ml) was added to each well and incubated overnight to allow complete formation of purple formazan crystals. The plates were then scanned and photographed, and the number of colonies was quantified by Quantity one v.4.0.3 software (Bio-Rad, Hercules, Calif.).

[12] = tested on: caspase-9; test: Cell-free caspase-9 activity in lysates of VP-16-treated Jurkat T cells, inhibitor present; assay type: biochemical, human; conditions: lysates of Jurkat T cells treated with 50 μM VP-16 for 5 hours
Description: as §1

[13] = tested on: caspase-8; test: Cell-free caspase-8 activity in lysates of VP-16-treated Jurkat T cells, inhibitor present; assay type: biochemical, human; conditions: lysates of Jurkat T cells treated with 50 μM VP-16 for 5 hours
Description: as §1

[14] = tested on: caspase-3; test: Cell-free caspase-3 activity in lysates of VP-16-treated Jurkat T cells, inhibitor present; assay type: biochemical, human; conditions: lysates of Jurkat T cells treated with 50 μM VP-16 for 5 hours
Description: as §1

SMILES: COC1C(=O)NC1c1ccccc1Cl (racemic) [lactam 2]
- increase in S phase population [1]: did not induce accumulation of either S or sub-G1 populations
- sub-G1 apoptotic population [1]: did not induce accumulation of either S or sub-G1 populations
- PARP cleavage [2]: induces neither caspase-3 activation nor PARP cleavage
- TUNEL-positive cell population (DNA damage) ([3]; 50 μM): did not cause any DNA damage
- caspase-3 activation [4]: induces neither caspase-3 activation nor PARP cleavage
- morphological changes [5]: no morphological changes

SMILES: CCSN1C(=O)C(OC)C1c1ccccc1Cl (racemic) [lactam 3]
- increase in S phase population [1]: 15%
- sub-G1 apoptotic population [1]: 10%
- decrease of PARP cleavage relative to lactam 1 [2]: ~50%
- TUNEL-positive cell population (DNA damage) ([3]; 50 μM): 16%
- decrease of caspase-3 activity relative to lactam 1 [4]: ~50%
- normalized increase in phosphorylation of p38 over control [6]: 3.2 fold

SMILES: CCCCSN1C(=O)C(OC)C1c1ccccc1Cl (racemic) [lactam 4]
- increase in S phase population [1]: 8%
- sub-G1 apoptotic population [1]: 2%
- decrease of PARP cleavage relative to lactam 1 [2]: ~65%
- TUNEL-positive cell population (DNA damage) ([3]; 50 μM): 3%
- decrease of caspase-3 activity relative to lactam 1 [4]: ~65%
- normalized increase in phosphorylation of p38 over control [6]: 2.6 fold

SMILES: COC1C(=O)N(SC)C1c1ccc(Cl)cc1 (racemic) [lactam 6]
- decrease of PARP cleavage relative to lactam 1 [2]: ~20%
- decrease of caspase-3 activity relative to lactam 1 [4]: ~20%

SMILES: COC1C(=O)N(SCc2ccccc2)C1c1ccccc1Cl (racemic) [lactam 7]
- decrease of PARP cleavage relative to lactam 1 [2]: ~70%
- decrease of caspase-3 activity relative to lactam 1 [4]: ~70%

SMILES: COC1C(=O)N(SC)C1c1ccccc1Br (racemic) [lactam 23]
- non-viable cell population / cell death (trypan blue) ([7]; 24 h): 55%

SMILES: COC1C(=O)N(SC)C1c1ccccc1I (racemic) [lactam 46]
- non-viable cell population / cell death (trypan blue) ([7]; 24 h): 60%

SMILES: COC1C(=O)N(SC)C1c1ccccc1[N+](=O)[O-] (racemic) [lactam 47]
- sub-G1 population ([1]; 12 h): 34%
- sub-G1 population ([1]; 24 h): 57%
- cell death (trypan blue) ([7]; 10 μM, 24 h): 25%
- cell death (trypan blue) ([7]; 25 μM, 3 h): 15%
- trypan blue-positive cells ([7]; 25 μM, 6 h): 24%
- cell death (trypan blue) ([7]; 25 μM, 24 h): 45%
- non-viable cell population / cell death (trypan blue) ([7]; 24 h): ~94% and 80-90%
- potency relative to lactam 1 ([7]; 24 h, trypan blue dose-response): ~2 fold
- PARP cleavage [8]: nor PARP cleavage
- cell death (trypan blue) [9]: neither cell death
- increase in caspase-3 activity over control ([10]; 2 μM): 2 fold
- increase in caspase-3 activity over control ([10]; 10 μM): 2.5 fold
- increase in caspase-3 activity over control ([10]; 25 μM): 4.2 fold
- TUNEL-positive cells ([3]; 50 μM, 12-24 h): 82-90%
- cells with DNA strand breaks (TUNEL) ([3]; 50 μM, 3 h): ~70%
- inhibition of colony formation [11]: ~100%

SMILES: COC1C(=O)N(SC)C1c1ccccc1 (racemic) [lactam 48]
- non-viable cell population / cell death (trypan blue) ([7]; 24 h): ~25%

SMILES: COC1C(=O)N(SC)C1c1ccccc1F (racemic) [lactam 49]
- non-viable cell population / cell death (trypan blue) ([7]; 24 h): ~35%

SMILES: CC(C)(C)OC(=O)NC(CC(=O)O)C(=O)CF [Boc-D-FMK, N-tert-butoxycarbonyl-Asp-fluoromethyl ketone]
- direct inhibition of caspase-9 activity [12]: completely blocked
- direct inhibition of caspase-8 activity [13]: completely blocked
- direct inhibition of caspase-3 activity [14]: completely blocked
- TUNEL positivity on co-treatment with lactam 1 ([3]; 4 hours, 50 μM lactam 1 plus PD 169316 at 30 μM or Boc-D-FMK at 50 μM): 97%
- effect on lactam 1-induced p38 phosphorylation ([6]; 4 hours, 50 μM lactam 1 plus inhibitor at 50 μM): not affected

SMILES: O=C1CC2(CCCCC2)CN1 [lactam 5]
- decrease of PARP cleavage relative to lactam 1 [2]: ~20%
- decrease of caspase-3 activity relative to lactam 1 [4]: ~20%
